What was measured:
MonoMac6 cells [1] = assay: Inhibition of TNF-alpha synthesis (ELISA) in MonoMac6 cells stimulated with LPS; assay type: cell-based, human; conditions: different concentrations of IAANS, 1 hour, then 20 ng/ml LPS; supernatant after 20 hours
Description: The effect of certain compound on the cell activation by LPS can also be detected by determination of the amount of cytokines, which are released by the cell activation. Addition of LPS to macrophage cells (or other cells, which normally express MD-2 and TLR4) causes the secretion of inflammatory cytokines such as TNF-alpha, IL-1, IL-8 . . . […] The amount of cytokines released into the media can be determined by the ELISA test. For the experiment we used monocytic cells MonoMac6. To 96-well plate we seeded 1×10^5 cells per well in media for MonoMac6 cells (RPMI with 10% FBS, nonessential aminoacids and OPI (both from Sigma)). 50 ng/ml of phorbol 12-myristate […] (Sigma) needed for differentiation into macrophages was added to cells. IAANS was added at different concentrations and incubated 1 hour, followed by the addition of 20 ng/ml LPS. 20 hours after the stimulation we took the supernatant, centrifuged it for 3 min on 13 000 rpm and performed the ELISA test for TNF-alpha.
To MonoMac6 cells, which express MD-2 and TLR4, we added different concentrations of IAANS and LPS and determined the concentration of TNF-alpha in media using the ELISA test.

MD-2 [2] = biological target: T1, MD-2 (Homo sapiens, UniProt Q9Y6Y9); assay: Binding to MD-2 monitored through the increase of the fluorescence (spectrofluorimeter); conditions: 100 nM MD-2 added to 200 nM compound in milliQ water, 25° C., time dependent
T1 construct: made in house; host or cells: Escherichia coli
T1 sequence (Q9Y6Y9 19-160): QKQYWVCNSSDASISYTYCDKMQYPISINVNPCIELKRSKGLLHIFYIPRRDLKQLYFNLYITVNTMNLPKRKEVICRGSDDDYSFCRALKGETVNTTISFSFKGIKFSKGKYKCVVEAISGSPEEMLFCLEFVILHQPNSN
Description: In the first example of the invention we used recombinant MD-2 produced in bacteria Escherichia coli to test the binding of the compounds, which contain a hydrophobic group and a group, which binds to the cysteine residue. This protein has biological activity as endogenous MD-2 and added protein enables response to LPS to cells lacking endogenous MD-2. We tested binding of compounds 2-(4′-(iodoacetamido)anilino)naphthalene-6-sulfonic acid (IAANS) and N-(1-pyrene)maleimide, which in addition to the above mentioned properties also have the additional feature of fluorescence, which makes them useful to show the principle of the invention. […] Change of the environment, which is a result of binding of the compound into the hydrophobic pocket, causes an increase of the fluorescence intensity of compounds, which is detected by measuring the emission fluorescence spectra using the spectrofluorimeter. […]
IAANS (Molecular Probes, USA) is an example of a compound with an alkylhalide group, which is reactive with a thiol group, an anilinonaphthalene group as a hydrophobic group and a sulfonic group as an anionic group. […] IAANS concentration was determined by measuring the absorbance at 326 nm in methanol (extinction coefficient at 326 nm in methanol is 27 000 cm^−1M^−1). […] Binding to MD-2 increases the fluorescence intensities of both compounds. […]

MonoMac6 cells [3] = assay: Activation of MonoMac6 cells without LPS, monitored through secreted TNF-alpha (ELISA); assay type: cell-based, human; conditions: different concentrations of IAANS, no LPS; supernatant after 20 hours
Description: The activation of the host innate immune system can have an important role for the treatment of diseases such as microbial infections, cancer and other diseases, where the participation of the innate immunity system is important. It is important that the compound, which activates the innate immune system has no other effects. If the compound activates the cells of the innate immunity, the same cytokines are secreted as by the activation with LPS, so the same assay can be used. For the assay we have used human monocytic cells MonoMac6. Into the 96-well plate we seeded 1×10^5 cells per well in the media for MonoMac6 cells. We added 50 ng/ml of phorbol 12-myristate […] (Sigma), which is needed for differentiation of cells into macrophages. Then we added different concentrations of IAANS and incubated. 20 hours after the stimulation we took the cell supernatants, centrifuged for 3 min at 13 000 rpm and performed ELISA test for TNF-alpha.
To MonoMac6 cells we added different concentrations of IAANS. […] Cells secreted TNF-alpha, which stimulates the innate immune response, which is important for the acquired immunity at vaccination or treatment of disease such as cancer, where the activation of host immune response is desirable. […]

MD-2 [4] = biological target: T1, MD-2; assay: Covalent binding to MD-2: fluorescence after GdnHCl denaturation and acetone precipitation, with or without iodoacetamide blocking
Description: In the second example of the invention we show, that binding of the compound to MD-2 is irreversible, therefore after binding to MD-2, compound remains permanently bound to the protein and therefore prevent binding of LPS or other ligands to MD-2.
The compounds with features mentioned above covalently bind to MD-2. The binding experiment was performed by adding to the concentration of MD-2 two times concentration excess of N-(1-pyrene) maleimide and incubated one hour at room temperature in the dark. The compound, which nonspecifically (noncovalently) bound to MD-2 was released from the protein by denaturation of the protein in 6 M guanidinium hydrochloride (GdnHCl). To the dissolved denatured protein we added five volumes of chilled (−20° C.) acetone and incubated for additional 60 min at −20° C. Then we centrifuged for 10 min at 13 000 rpm. […] The precipitate was dissolved in […] of 6 M GdnHCl and fluorescence emission spectrum was measured with excitation at 338 nm (FIG. 2). […] Binding of iodoacetamide inhibited binding of a compound to free cysteine residue on MD-2, which can be detected by lower fluorescence intensity of the compound.
We compared the fluorescence of MD-2, incubated with N-(1-pyrene) maleimide and to MD-2, with said compound, where we have previously added iodoacetamide for blocking free cysteine residues.

| Structure (SMILES) | inhibition of LPS dependent synthesis of TNF-alpha (MonoMac6 cells [1]) | change of the fluorescence intensity at emission maximum after addition of MD-2 (MD-2 [2]) | activation of MonoMac6 cells (secreted TNF-alpha) (MonoMac6 cells [3]) | covalent (irreversible) binding to MD-2: emission spectrum preserved in 6 M GdnHCl (MD-2 [4]; two times excess of compound, one hour at room temperature, denaturation in 6 M GdnHCl, acetone precipitation, excitation 338 nm) | effect of previous incubation with iodoacetamide on binding of N-(1-pyrene) maleimide to MD-2 (MD-2 [4]; five molar excess of iodoacetamide added beforehand to block free cysteine residues) |
| --- | --- | --- | --- | --- | --- |
| O=C(CI)Nc1ccc(Nc2ccc3cc(S(=O)(=O)O)ccc3c2)cc1 [IAANS, 2-(4′-(iodoacetamido)anilino)naphthalene-6-sulfonic acid] | inhibited LPS dependent synthesis of TNF-alpha in a concentration-dependent manner | increase of the IAANS fluorescence after binding to MD-2 | activated the cells in the concentration dependent manner | – | – |
| O=C1C=CC(=O)N1c1ccc2ccc3cccc4ccc1c2c34 [N-(1-pyrene) maleimide, N-(1-pyrene)maleimide] | – | increase of the N-(1-pyrene) maleimide fluorescence after binding to MD-2 | – | irreversibly bound to MD-2 | – |
| NC(=O)CI [iodoacetamide, reference compound] | – | – | – | – | inhibited binding of N-(1-pyrene) maleimide to MD-2 |
